#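 Compound exposure: 48 hours, 5 concentrations, 96-well plates. GI50: concentration for 50% inhibition of growth.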 Activity calls are given as the source filed them. Rule as the data show it: active = GI50 up to about 1.1 µM and inactive = higher.
# Experiments:
# Test in all cases: growth of human tumour cells (NCI), 48 h
# [1] = tested on: SF-539
# [2] = tested on: SK-OV-3
# [3] = tested on: PC-3
# [4] = tested on: SNB-75
# [5] = tested on: MDA-N
# [6] = tested on: 786-0
# [7] = tested on: OVCAR-8
# [8] = tested on: SK-MEL-5
# [9] = tested on: ACHN
# [10] = tested on: OVCAR-5
# [11] = tested on: UACC-257
# [12] = tested on: SW-620
# [13] = tested on: SK-MEL-28
# [14] = tested on: TK-10
# [15] = tested on: NCI-H226
# [16] = tested on: COLO 205
# [17] = tested on: SK-MEL-2
# [18] = tested on: RXF 393
# [19] = tested on: HL-60
SMILES,GI50 [1],GI50 [2],GI50 [3],GI50 [4],GI50 [5],GI50 [6],GI50 [7],GI50 [8],GI50 [9],GI50 [10],GI50 [11],GI50 [12],GI50 [13],GI50 [14],GI50 [15],GI50 [16],GI50 [17],GI50 [18],GI50 [19]
COc1cc(OC)c2c(C)cc(=O)oc2c1,34.8 µM (inactive),> 100 µM (inactive),> 100 µM (inactive),25.9 µM (inactive),> 100 µM (inactive),52.6 µM (inactive),55.7 µM (inactive),> 100 µM (inactive),36.7 µM (inactive),> 100 µM (inactive),93.8 µM (inactive),54.5 µM (inactive),> 100 µM (inactive),66.4 µM (inactive),41.5 µM (inactive),54.1 µM (inactive),> 100 µM (inactive),–,–
CN(N=O)N1C(=O)SCC(c2ccccc2)(c2ccccc2)C1=O,21.9 µM (inactive),25.2 µM (inactive),42.4 µM (inactive),25.6 µM (inactive),28.4 µM (inactive),46.6 µM (inactive),16.2 µM (inactive),37.8 µM (inactive),37.2 µM (inactive),> 100 µM (inactive),64.3 µM (inactive),38.7 µM (inactive),36.8 µM (inactive),50.2 µM (inactive),14 µM (inactive),25.3 µM (inactive),18.9 µM (inactive),22.3 µM (inactive),46.1 µM (inactive)
O=C1CCC(=O)c2c1c(O)c1ccncc1c2O,15.6 µM (inactive),36.5 µM (inactive),–,18.7 µM (inactive),–,15.7 µM (inactive),10 µM (inactive),11.4 µM (inactive),15.3 µM (inactive),23 µM (inactive),7.5 µM (inactive),16.4 µM (inactive),20.5 µM (inactive),18.4 µM (inactive),20.6 µM (inactive),7.94 µM (inactive),13.6 µM (inactive),21 µM (inactive),7.94 µM (inactive)
CC(=O)OCC1OC(n2c3c(c(-c4ccc(Cl)cc4)c(C#N)c2=S)CCCC3)C(OC(C)=O)C(OC(C)=O)C1OC(C)=O (centres undefined),74.5 µM (inactive),75.2 µM (inactive),25.5 µM (inactive),15.3 µM (inactive),42.8 µM (inactive),80.7 µM (inactive),> 100 µM (inactive),16.7 µM (inactive),43.8 µM (inactive),> 100 µM (inactive),51.9 µM (inactive),–,32.4 µM (inactive),44.9 µM (inactive),36.6 µM (inactive),35.2 µM (inactive),30.6 µM (inactive),23.5 µM (inactive),64.9 µM (inactive)
CCCCCCCCOCC1S(=O)(=O)OCCOS1(=O)=O,> 100 µM (inactive),> 100 µM (inactive),> 100 µM (inactive),> 100 µM (inactive),> 100 µM (inactive),> 100 µM (inactive),> 100 µM (inactive),> 100 µM (inactive),> 100 µM (inactive),> 100 µM (inactive),> 100 µM (inactive),> 100 µM (inactive),> 100 µM (inactive),> 100 µM (inactive),> 100 µM (inactive),> 100 µM (inactive),> 100 µM (inactive),> 100 µM (inactive),> 100 µM (inactive)
Cc1ccc(/N=N/c2ccc(N(CCC#N)CCC#N)cc2C)c(Br)c1,14.4 µM (inactive),10.3 µM (inactive),–,11.3 µM (inactive),–,17 µM (inactive),49.3 µM (inactive),16.3 µM (inactive),15 µM (inactive),56 µM (inactive),26 µM (inactive),21.9 µM (inactive),51.3 µM (inactive),16.7 µM (inactive),17.2 µM (inactive),38.1 µM (inactive),16.9 µM (inactive),9.27 µM (inactive),5.42 µM (inactive)
OC1(CCc2ccccc2)COC(C(F)(F)F)(C(F)(F)F)C1 (centres undefined),> 100 µM (inactive),> 100 µM (inactive),> 100 µM (inactive),> 100 µM (inactive),> 100 µM (inactive),> 100 µM (inactive),> 100 µM (inactive),> 100 µM (inactive),> 100 µM (inactive),> 100 µM (inactive),–,> 100 µM (inactive),> 100 µM (inactive),> 100 µM (inactive),> 100 µM (inactive),> 100 µM (inactive),> 100 µM (inactive),> 100 µM (inactive),> 100 µM (inactive)
COc1ccc(/C=C2\Sc3nnc(-c4ccccc4)n3N=C2c2cc(F)c(Cl)cc2Cl)cc1OC,> 100 µM (inactive),> 100 µM (inactive),66.2 µM (inactive),–,23.1 µM (inactive),48.4 µM (inactive),48.9 µM (inactive),> 100 µM (inactive),> 100 µM (inactive),> 100 µM (inactive),> 100 µM (inactive),14.2 µM (inactive),> 100 µM (inactive),> 100 µM (inactive),> 100 µM (inactive),–,> 100 µM (inactive),11.7 µM (inactive),0.573 µM (active)
CC(C)(C)OC(=O)N[C@H]1CCN(C2CCCCC2)C1=O,> 100 µM (inactive),> 100 µM (inactive),> 100 µM (inactive),> 100 µM (inactive),> 100 µM (inactive),> 100 µM (inactive),> 100 µM (inactive),> 100 µM (inactive),> 100 µM (inactive),> 100 µM (inactive),–,> 100 µM (inactive),> 100 µM (inactive),> 100 µM (inactive),> 100 µM (inactive),> 100 µM (inactive),> 100 µM (inactive),–,> 100 µM (inactive)
COc1cc(OC)c(OC)cc1/C=N/N=C(\N)NO,> 100 µM (inactive),> 100 µM (inactive),> 100 µM (inactive),21.9 µM (inactive),> 100 µM (inactive),> 100 µM (inactive),> 100 µM (inactive),> 100 µM (inactive),56.2 µM (inactive),> 100 µM (inactive),> 100 µM (inactive),> 100 µM (inactive),> 100 µM (inactive),> 100 µM (inactive),61.4 µM (inactive),80 µM (inactive),99.8 µM (inactive),> 100 µM (inactive),83.9 µM (inactive)
COC(=O)C(C(=O)C(=O)Nc1nc2ccc([N+](=O)[O-])cc2s1)c1nc2ccc(Cl)cc2nc1O (centres undefined),> 100 µM (inactive),35.2 µM (inactive),–,52 µM (inactive),–,> 100 µM (inactive),> 100 µM (inactive),> 100 µM (inactive),> 100 µM (inactive),> 100 µM (inactive),> 100 µM (inactive),> 100 µM (inactive),> 100 µM (inactive),> 100 µM (inactive),> 100 µM (inactive),> 100 µM (inactive),> 100 µM (inactive),> 100 µM (inactive),> 100 µM (inactive)
CC(=O)c1ccc2c(c1)CC1(C2)Cc2cc3c(cc2C1=O)CCC3 (centres undefined),29.9 µM (inactive),33.6 µM (inactive),19.2 µM (inactive),15.6 µM (inactive),14.4 µM (inactive),19.3 µM (inactive),16.1 µM (inactive),10.3 µM (inactive),16.1 µM (inactive),30.6 µM (inactive),15 µM (inactive),32.6 µM (inactive),24.6 µM (inactive),25.7 µM (inactive),–,14.9 µM (inactive),21.7 µM (inactive),20.8 µM (inactive),14.3 µM (inactive)
Cc1ccc(NC(=O)CCC(CC(=O)C(C)(C)C)=NNC(=O)C(=O)NN)cc1C,> 100 µM (inactive),> 100 µM (inactive),–,> 100 µM (inactive),–,> 100 µM (inactive),> 100 µM (inactive),> 100 µM (inactive),> 100 µM (inactive),> 100 µM (inactive),> 100 µM (inactive),> 100 µM (inactive),> 100 µM (inactive),> 100 µM (inactive),> 100 µM (inactive),> 100 µM (inactive),> 100 µM (inactive),> 100 µM (inactive),> 100 µM (inactive)
CC(=O)OCC1=CC2CCC3C(C)(CCC[C@]3(C)COC(C)=O)C23CC[C@H]1C3 (some centres undefined),40.3 µM (inactive),64.7 µM (inactive),–,34.9 µM (inactive),–,57.3 µM (inactive),53.7 µM (inactive),25.5 µM (inactive),73.1 µM (inactive),> 100 µM (inactive),37.7 µM (inactive),56.6 µM (inactive),> 100 µM (inactive),> 100 µM (inactive),68.1 µM (inactive),24 µM (inactive),33.8 µM (inactive),46.5 µM (inactive),26 µM (inactive)
CCCCCCCCCCCCn1[nH]c(C)c(C(=S)SCCCCCCCC)c1=O,73.8 µM (inactive),> 93.1 µM (inactive),–,> 100 µM (inactive),–,45.4 µM (inactive),30.7 µM (inactive),49 µM (inactive),37.6 µM (inactive),> 100 µM (inactive),41.8 µM (inactive),35.2 µM (inactive),> 100 µM (inactive),64.6 µM (inactive),23.4 µM (inactive),37.2 µM (inactive),> 100 µM (inactive),37.3 µM (inactive),45.1 µM (inactive)

# Source: ChEMBL document CHEMBL1201862, “PubChem BioAssay data set” (2004)
